Assays:
Myeloperoxidase (MPO) = target: T1, Myeloperoxidase (MPO) (Homo sapiens, UniProt P05164); test: Myeloperoxidase Inhibitor Screening Assay (chlorination, hypochlorous acid production); assay type: biochemical; settings: MPO inhibition; parenthetic values are 95% confidence interval; read-out: Observed IC50 (converted)
T1 sequence (P05164 49-745): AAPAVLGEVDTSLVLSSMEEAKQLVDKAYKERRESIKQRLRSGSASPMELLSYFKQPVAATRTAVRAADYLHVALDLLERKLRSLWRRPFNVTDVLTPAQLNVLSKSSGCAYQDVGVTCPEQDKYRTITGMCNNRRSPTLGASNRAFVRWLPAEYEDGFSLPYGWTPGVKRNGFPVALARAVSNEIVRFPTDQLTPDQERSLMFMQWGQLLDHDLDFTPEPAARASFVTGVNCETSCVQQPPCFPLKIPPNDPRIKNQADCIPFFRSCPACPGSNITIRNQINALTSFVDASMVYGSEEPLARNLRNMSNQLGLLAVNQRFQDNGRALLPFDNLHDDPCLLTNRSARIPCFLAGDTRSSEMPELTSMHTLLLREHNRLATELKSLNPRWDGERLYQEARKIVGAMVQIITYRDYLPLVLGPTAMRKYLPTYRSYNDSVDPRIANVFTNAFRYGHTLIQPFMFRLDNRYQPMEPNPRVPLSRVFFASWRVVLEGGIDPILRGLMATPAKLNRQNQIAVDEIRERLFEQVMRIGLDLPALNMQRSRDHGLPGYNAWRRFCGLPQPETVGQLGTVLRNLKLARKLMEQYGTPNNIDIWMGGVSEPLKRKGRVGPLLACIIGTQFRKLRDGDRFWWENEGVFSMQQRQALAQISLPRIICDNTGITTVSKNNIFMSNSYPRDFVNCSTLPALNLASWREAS
Protocol: Formulations 1 and 2, as described in Table 2 above, were tested for their synergistic activity. Additional samples of F1 and F2 were prepared at an initial concentration of 100 mg/mL in an acetone:water (1:1) solution, sonicated in an ice bath for 60 min with vortexing every 10 min, and centrifuged at 3000 rpm at ambient temperature for 5 min. The supernatant liquid was transferred to fresh tubes and centrifuged again at 13,300 rpm at ambient temperature for 10 min. This final supernatant fraction was transferred to fresh tubes and stored at −80° C. until assayed.
The acetone used in this example was obtained through Fisher Chemical Co (Pittsburgh, Pa.) and was the highest purity available. […]
The chlorination assay utilizes the non-fluorescent 2-[6-(4-aminophenoxy)-3-oxo-3H-xanthen-9-yl]-benzoic acid (APF), which is selectively cleaved by hypochlorite to yield the highly fluorescent compound fluorescein. Fluorescein fluorescence was analyzed with an excitation wavelength of 480-495 nm and an emission wavelength of 515-525 nm using a Cytation5 microplate fluorescence reader (Bio Tek Instruments, Winooski, Vt.).
The median inhibitory concentration (IC50) for the inhibition of MPO activity was calculated using CalcuSyn (BIOSOFT, Ferguson, Mo.). […]
Synergy of test components was then quantified using the combination index (CI) parameter. […]

[1] = test system: NO biomarker NO2 in saliva; test: Salivary NO biomarker (NO2) test strips after dosing of the formulations; assay type: in vivo, human; settings: pharmacodynamic studies in this laboratory
Protocol: Over three days, subjects, with normal plasma concentrations of ADMA, were instructed to consume the 10 g of either F1 or F2 with 500 mL of water subsequent to developing the first, pre-dose NO strip. At post-dosing times 30, 60 and 90 minutes, NO strips were again developed for all subjects. One subject was given a 2× dose (20 g) of both formulations over the experimental period. The salivary NO strips, which detect salivary NO2, were nitric Oxide Test Strips (Berkeley Test, Berkeley, Calif.). Color development of NO strips was quantitated using densitometry. Means and 95% confidence intervals were computed using Excel [Microsoft, Redman, Wash.].
The assay of nitrite in saliva and nitrate in Test Formulation 3 (F3) was conducted as described in Example 1. Color development of NO strips was quantitated as described in Example 1. Means and 95% confidence intervals were computed as described in Example 1.
During the morning period, subjects (n=5), with normal plasma concentrations of ADMA, were instructed to consume 5 mL of the F3 with 500 mL of water subsequent to developing the first, pre-dose NO strip. At post-dosing times 30, 60 and 90 minutes, NO strips were again developed for all subjects.

[2] = cited from earlier work

IC50 (Myeloperoxidase (MPO)) [µM]	SMILES	NO3 content that does not produce a detectable increase in NO strip color development [1]	bioavailability ([2]; dietary NO3) [%]	half-life in plasma ([2]; orally consumed NO3)	time to peak plasma concentration ([2]; orally consumed NO3)
46.4	N=C(N)NCCC[C@H](N)C(=O)O [L-Arginine]	–	–	–	–
103	NC(=O)NCCC[C@H](N)C(=O)O [L-Citrulline]	–	–	–	–
–	O=[N+]([O-])O [NO3]	below 12.5 mg NO3/dose	100	about 5 hours	about 1 hour

Source: patent US11241406B2, “Compositions and methods for acutley raising nitric oxide levels” (Nature's Sunshine Products, Inc., priority 2015, dated 2022)
